From publication PMC5656322, “BAK1 is involved in AtRALF1-induced inhibition of root cell expansion” (PLoS Genetics, 2017)
Where no end group is shown, it is not given here.

Key:
[1] = tested on: Arabidopsis seedlings, rhizosphere; assay: Rhizosphere alkalinization, gel with pH indicator bromocresol purple; format: in vivo, Arabidopsis thaliana; settings: wild-type and bak1 seedlings, 10 μM, 30 min, pH 5.7
Procedure: To analyze the rhizosphere alkalinization, seedlings were grown in plates for 7 days. To avoid damage to the roots, the medium was solidified with 12 g l^-1 Phytagel. Seedlings were transferred to plates containing the pH indicator bromocresol purple (pH 5.7) as described previously and treated with 10 μM AtRALF1 or water. Images were captured 30 min after transfer onto the gel indicator. The experiments were repeated at least three times using independent biological replicates. The data shown are from one representative experiment.

BAK1-GFP [2] = assay: BAK1 protein accumulation, protein blot anti-GFP; format: in vivo, Arabidopsis thaliana; settings: pBAK1:BAK1-GFP plants, 1 μM
Procedure: Fig 4 The BAK1 gene is induced by AtRALF1. (A) BAK1 gene expression in the roots of Arabidopsis seedlings (10-days-old) treated with AtRALF1. Root tissues were collected 1 h after treatment. Semi-quantitative RT-PCR and qRT-PCR were performed using total RNA extracted from the roots of untreated (-) or treated (+) plants. GAPDH expression was used as an internal control. (B) Quantification of GFP fluorescence intensity. The values are the mean ± SD of 20 seedlings. Student’s t test was used to compare the values obtained from treated and untreated seedlings. Double asterisk indicates P < 0.05 (Student’s t test); ns, not significant. (C) Representative confocal images of pBAK1:BAK1-GFP seedlings (4 days old) treated with 1 μM AtRALF1. Images were captured 4 h after treatment and were obtained by scanning 10 slices over a distance of 7 μm. MZ, meristematic zone; EZ, elongation zone; DZ, Differentiation zone. Bars, 100 μm. (D) pBAK1:BAK1-GFP plants were treated with water or 1 μM AtRALF1. After treatment, protein extracts from pBAK1:BAK1-GFP roots were subjected to immunoblot analysis with anti-GFP antibody. Ponceau was used to show equal loading of protein.

BAK1-GFP [3] = assay: Co-immunoprecipitation with microsomal fraction of N. benthamiana leaves expressing BAK1-GFP; format: binding, Arabidopsis thaliana; settings: 600 nM peptide, 1 h, 4 °C, anti-GFP antibody
Procedure: This assay was performed as previously described with some modifications. The BAK1 coding region was amplified from Arabidopsis genomic cDNA using standard PCR with the primers BAK1 Fw and BAK1 Rv (S1 Table). To generate the p35S-BAK1:GFP plasmid, the fragment was cloned into the pENTR D-TOPO vector and later transferred to the pk7FWG2 vector [56]. Leaves from N. benthamiana plants were agroinfiltrated with p19 vector alone and p19 co-expressed with p35S-BAK1:GFP, as previously described. After 3 days, leaves were homogenized in extraction buffer [300 mM sucrose, 100 mM Tris-HCl pH 7.5, 25 mM EDTA, 25 mM NaF, 1 mM Na2MoO4, 1 mM PMSF, 1 mM DTT and protease inhibitor cocktail (Roche), pH 6.2 adjusted] and centrifuged at 1,000 g for 10 min at 4°C, and the supernatant was then centrifuged at 100,000 g for 50 min at 4°C to precipitate the microsomal pellet. The pellet was resuspended in the extraction buffer plus 0.5% Triton-X and incubated with 600 nM recombinant AtRALF1 or 600 nM RALF1(I6A) for 1 h at 4°C. The complexes were incubated with anti-GFP antibody (Santa Cruz Biotechnology) and Sepharose Beads plus protein A (Life Technologies) overnight at 4°C. […] The AtRALF1/BAK1-GFP complex bound to the beads was eluted with denaturing in 10 μl of 1X loading buffer (NuPAGE LDS buffer) at 95°C for 8 min, then analyzed by SDS-PAGE. The proteins were detected as previously described.

BAK1 = BAK1 phosphorylation assay, anti-phosphothreonine; format: in vivo, Arabidopsis thaliana; settings: 20 min
Procedure: Transgenic plants pBAK1:BAK1-6xHA were grown in vertical plates for 10–15 days. The plants were treated with 0.1 μM BL, 2 μM RALF1(9–49), 1 μM, 2 μM or 10 μM AtRALF1 for 20 min. The roots were isolated, and the microsomal fractions were obtained as described above. The microsomal fractions were incubated with anti-HA beads (EZview Red Anti-HA Affinity Gel, Sigma) for 2 h at 4 °C to immunoprecipitate the BAK1 protein. The unbound materials were removed by washing 3 times. Proteins were separated by SDS/PAGE and further analyzed by protein blotting using anti-HA (Thermo Scientific), or anti-phosphothreonine (Novus Biologicals), or anti-phosphoserine (Novus Biologicals) antibodies.

[4] = tested on: AtPRP3, AtHRGP2, CPD and DWF4 genes; settings: cited from earlier work
Text: AtRALF1-overexpressing plants are less sensitive to exogenous brassinosteroids (BRs). […] AtRALF1 also induces two cytochrome P450 monooxygenase genes related to the BR biosynthetic pathway: Constitutive Photomorphism and Dwarfism (CPD) and DWARF4 (DWF4). We exposed the bak1 mutants to the same concentration of AtRALF1 and evaluated the capacity to induce the AtPRP3, AtHRGP2, CPD and DWF4 genes. None of the AtRALF1-inducible genes were ...

Substance: AtRALF1: root-specific RALF isoform in Arabidopsis; recombinant peptide hormone produced in E. coli (ATTKYISYQSLKRNSVPCSRRGASYYNCQNGAQANPYSRGCSKIARCRS; ends and bridges not checked; cysteine pairing not given here)
- rhizosphere coloration (alkalinization) [1]: developed a purple coloration around the rhizosphere
- BAK1 protein accumulation (BAK1-GFP [2]): BAK1 protein accumulation was also verified by protein blot
- co-immunoprecipitation with BAK1-GFP (BAK1-GFP [3]): co-immunoprecipitated when the anti-GFP antibody was used
- further increase of BAK1 Thr phosphorylation (BAK1; 10 μM): did not result in further increases in phosphorylation
- upper concentration of dose-dependent BAK1 Thr phosphorylation (BAK1; pBAK1:BAK1-HA roots): up to 2 μM
- BAK1 phosphorylation in threonine residues (BAK1; pBAK1:BAK1-HA roots, AtRALF1 1, 2, 10 μM, BL 0.1 μM): increase in BAK1 phosphorylation in the threonine residues similar to the increase resulting from the treatment of the seedlings with BL
- induction of AtPRP3 and AtHRGP2 genes ([4]; Arabidopsis seedling roots, ref [9]): induces, in a dose-dependent manner
- induction of CPD and DWF4 genes ([4]; ref [9]): induces
- AtEXPA5 expression ([4]; roots of treated seedlings, ref [16]–[18]): repressed in the roots of AtRALF1-treated seedlings
